Data from US20240325398A1, “COMBINATION THERAPIES” (Infinity Pharmaceuticals, Inc., priority 2014, published 2024).

Key:
HH = assay: Combination study, ATPLite 72 h, dose matrix (Synergy Score, CI50); assay type: cell-based; settings: combination with Compound 1
Protocol: The method is described as follows.
Additive effect is CI=1.0. […] Antagonistic effect is CI>1.0.
The Synergy Score is calculated as: […]

HBL-1 = assay: as above; settings: combination with Compound 1, 72 h
Protocol: (§1) Cells are thawed from a liquid nitrogen preserved state. Once cells have been expanded and divide at their expected doubling times, screening begins. Cells are seeded in growth media in either black 1536-well or 384-well tissue culture treated plates. Cells are then equilibrated in assay plates via centrifugation and placed in incubators attached to the Dosing Modules at 37° C. for 24 hours before treatment. […] These Tzero (To) plates are read using ultra-sensitive luminescence on Envision plate readers (Perkin Elmer). Treated assay plates are incubated with compound for 72 hours. After 72 hours, plates are developed for endpoint analysis using ATPLite. All data points are collected via automated processes, quality controlled and analyzed using Zalicus software.
(§2) where T is treated cell count and V is untreated (vehicle) cell count (at 72 hours). I ranges from 0% (when T=V) to 100% (when T=0). […] The measure of effect in the experiment can be the inhibition of cellular response relative to the untreated level (vehicle alone). […] The inhibition ranges from 0% at the untreated level to 100% when T=0. Inhibition levels are negative for agents that actually increase levels. Other effect measures, such as an activity ratio r=T/V may be more appropriate for some assays. When activity ratios (e.g, fold increase over stimulated control) are being used, the effect can be measured using an induction 1=ln(T/V). With this definition, all effect expressions are the same as for inhibition.
(§3) Growth Inhibition (GI) is used as a measure of cell viability. […] A GI reading of 100% represents complete growth inhibition—T72 compound-treated and T0 vehicle signals are matched. […] A GI reading of 200% represents complete death of all cells in the culture well. Compounds reaching an activity plateau of GI 200% are considered cytotoxic. GI is calculated by applying the following test and equation:
(§4) Combination analysis data were collected in a 6×6 dose matrix. Synergy is calculated by comparing a combination's response to those of its single compound, against the drug-with-itself dose-additive reference model. Deviations from dose additivity may be assessed visually on an isobologram or numerically with a Combination Index (CI). […] Additive effect is CI=1.0. […] Antagonistic effect is CI>1.0.
(§5) To measure combination effects in excess of Loewe additivity, a scalar measure to characterize the strength of synergistic interaction termed the Synergy Score is devised. The Synergy Score is calculated as:
(§6) The fractional inhibition for each component agent and combination point in the matrix is calculated relative to the median of all vehicle-treated control wells. The Synergy Score equation integrates the experimentally-observed activity volume at each point in the matrix in excess of a model surface numerically derived from the activity of the component agents using the Loewe model for additivity. Additional terms in the Synergy Score equation (above) are used to normalize for various dilution factors used for individual agents and to allow for comparison of synergy scores across an entire experiment. The inclusion of positive inhibition gating or an Idata multiplier removes noise near the zero effect level, and biases results for synergistic interactions at that occur at high activity levels.
(§7) Loewe Volume (Loewe Vol) is used to assess the overall magnitude of the combination interaction in excess of the Loewe additivity model. Loewe Volume is particularly useful when distinguishing synergistic increases in a phenotypic activity (positive Loewe Volume) versus synergistic antagonisms (negative Loewe Volume). […] This model defines additivity as a non-synergistic combination interaction where the combination dose matrix surface should be indistinguishable from either drug crossed with itself. The calculation for Loewe additivity is:

OCI-Ly3 = assay: as above; settings: combination with Compound 1; OCI-Ly3; 72 h
U-2932 = assay: as above; settings: combination with Compound 1, 72 h
Protocol: as §1, §2, §3, §4, §5, §6, §7

TMD8 = assay: as above; settings: combination with Compound 1; TMD8; 72 h
OCI-Ly7 = assay: as above; settings: combination with Compound 1, 72 h
SU-DHL-4-epst = assay: as above; settings: combination with Compound 1, 72 h
DOHH-2 = assay: as above; settings: combination with Compound 1, 72 h
Protocol: as §1
(§8) The measure of effect in the experiment can be the inhibition of cellular response relative to the untreated level (vehicle alone). […] The inhibition ranges from 0% at the untreated level to 100% when T=0. Inhibition levels are negative for agents that actually increase levels.
as §3, §4, §5, §6, §7

Farage = assay: as above; settings: combination with Compound 1; Farage; 72 h
SU-DHL-10-epst = assay: as above; settings: combination with Compound 1, 72 h
Protocol: as §1, §8, §3, §4, §5, §6, §7

RL = assay: as above; settings: combination with Compound 1, 72 h
KARPAS-422 = assay: as above; settings: combination with Compound 1, 72 h
WSU-NHL = assay: as above; settings: combination with Compound 1, 72 h
KARPAS-299 = assay: as above; settings: combination with Compound 1
Protocol: as §1, §2, §3, §4, §5, §6
(§9) Loewe Volume (Loewe Vol) is used to assess the overall magnitude of the combination interaction in excess of the Loewe additivity model. Loewe Volume is particularly useful when distinguishing synergistic increases in a phenotypic activity (positive Loewe Volume) versus synergistic antagonisms (negative Loewe Volume). […] This model defines additivity as a non-synergistic combination interaction where the combination dose matrix surface should be indistinguishable from either drug crossed with itself.

GRANTA-519 = assay: as above; settings: combination with Compound 1
Protocol: as §1, §2, §3, §4, §5, §6, §9

Jeko-1 = assay: as above; settings: combination with Compound 1
Mino = assay: as above; settings: combination with Compound 1
NCI-H929 = assay: as above; settings: combination with Compound 1
[1] = as above; settings: combination with Compound 1; OPM-2
OMP-2 = assay: as above; settings: combination with Compound 1; OPM-2
RPMI-8226 = assay: as above; settings: combination with Compound 1
Protocol: as §1, §2, §3, §4, §5, §6, §9

CC(C)C[C@H](NC(=O)[C@H](Cc1ccccc1)NC(=O)c1cnccn1)B(O)O [bortezomib, [(1R)-3-methyl-1-({(2S)-3-phenyl-2-[(pyrazin-2-ylcarbonyl)amino]propanoyl}amino)butyl]boronic acid]
CI50 growth inhibition (HH): U (U=0.7 to <1) | CI50 inhibition (HH): U (U=0.7 to <1) | CI50 growth inhibition (HBL-1): U (U=0.7 to <1) | CI50 inhibition (HBL-1): U (U=0.7 to <1) | CI50 growth inhibition (OCI-Ly3): U (U=0.7 to <1) | CI50 inhibition (OCI-Ly3): W (W=≥1) | CI50 growth inhibition (U-2932): U (U=0.7 to <1) | CI50 inhibition (U-2932): W (W=≥1) | CI50 growth inhibition (TMD8): U (U=0.7 to <1) | CI50 inhibition (TMD8): U (U=0.7 to <1) | CI50 growth inhibition (OCI-Ly7): U (U=0.7 to <1) | CI50 inhibition (OCI-Ly7): U (U=0.7 to <1) | CI50 growth inhibition (SU-DHL-4-epst): U (U=0.7 to <1) | CI50 inhibition (SU-DHL-4-epst): T (T=0.5 to <0.7) | CI50 growth inhibition (DOHH-2): U (U=0.7 to <1) | CI50 inhibition (DOHH-2): U (U=0.7 to <1) | CI50 growth inhibition (Farage): U (U=0.7 to <1) | CI50 inhibition (Farage): U (U=0.7 to <1) | CI50 growth inhibition (SU-DHL-10-epst): U (U=0.7 to <1) | CI50 inhibition (SU-DHL-10-epst): U (U=0.7 to <1) | CI50 growth inhibition (RL): U (U=0.7 to <1) | CI50 inhibition (RL): W (W=≥1) | CI50 growth inhibition (KARPAS-422): W (W=≥1) | CI50 inhibition (KARPAS-422): W (W=≥1) | CI50 growth inhibition (WSU-NHL): U (U=0.7 to <1) | CI50 inhibition (WSU-NHL): U (U=0.7 to <1) | CI50 growth inhibition (KARPAS-299): U (U=0.7 to <1) | CI50 inhibition (KARPAS-299): U (U=0.7 to <1) | CI50 growth inhibition (GRANTA-519): T (T=0.5 to <0.7) | CI50 inhibition (GRANTA-519): U (U=0.7 to <1) | CI50 growth inhibition (Jeko-1): U (U=0.7 to <1) | CI50 inhibition (Jeko-1): U (U=0.7 to <1) | CI50 growth inhibition (Mino): U (U=0.7 to <1) | CI50 inhibition (Mino): U (U=0.7 to <1) | CI50 growth inhibition (NCI-H929): U (U=0.7 to <1) | CI50 inhibition (NCI-H929): W (W=≥1) | CI50 growth inhibition [1]: W (W=≥1) | CI50 inhibition (OMP-2): W (W=≥1) | CI50 growth inhibition (RPMI-8226): U (U=0.7 to <1) | CI50 inhibition (RPMI-8226): U (U=0.7 to <1)

O=C(NOC[C@H](O)CO)c1ccc(F)c(F)c1Nc1ccc(I)cc1F [PD0325901]
CI50 growth inhibition (HH): W (W=≥1) | CI50 inhibition (HH): U (U=0.7 to <1) | Synergy Score growth inhibition (HH): A2 (A2=1 to <3) | Synergy Score inhibition (HH): A1 (A1=0.0001 to <1) | CI50 growth inhibition (HBL-1): T (T=0.5 to <0.7) | Synergy Score growth inhibition (HBL-1): A2 (A2=1 to <3) | Synergy Score inhibition (HBL-1): A1 (A1=0.0001 to <1) | CI50 growth inhibition (OCI-Ly3): S (S=0.01 to <0.5) | Synergy Score growth inhibition (OCI-Ly3): A2 (A2=1 to <3) | Synergy Score inhibition (OCI-Ly3): A1 (A1=0.0001 to <1) | CI50 growth inhibition (U-2932): U (U=0.7 to <1) | Synergy Score growth inhibition (U-2932): A2 (A2=1 to <3) | Synergy Score inhibition (U-2932): A1 (A1=0.0001 to <1) | CI50 growth inhibition (TMD8): U (U=0.7 to <1) | CI50 inhibition (TMD8): U (U=0.7 to <1) | Synergy Score growth inhibition (TMD8): A3 (A3=>3) | Synergy Score inhibition (TMD8): A3 (A3=>3) | Synergy Score growth inhibition (OCI-Ly7): A1 (A1=0.0001 to <1) | Synergy Score inhibition (OCI-Ly7): A1 (A1=0.0001 to <1) | CI50 growth inhibition (SU-DHL-4-epst): S (S=0.01 to <0.5) | CI50 inhibition (SU-DHL-4-epst): T (T=0.5 to <0.7) | Synergy Score growth inhibition (SU-DHL-4-epst): A2 (A2=1 to <3) | Synergy Score inhibition (SU-DHL-4-epst): A2 (A2=1 to <3) | CI50 growth inhibition (DOHH-2): W (W=≥1) | CI50 inhibition (DOHH-2): W (W=≥1) | Synergy Score growth inhibition (DOHH-2): A1 (A1=0.0001 to <1) | Synergy Score inhibition (DOHH-2): A1 (A1=0.0001 to <1) | CI50 growth inhibition (Farage): W (W=≥1) | CI50 inhibition (Farage): W (W=≥1) | Synergy Score growth inhibition (Farage): A2 (A2=1 to <3) | Synergy Score inhibition (Farage): A1 (A1=0.0001 to <1) | CI50 growth inhibition (SU-DHL-10-epst): S (S=0.01 to <0.5) | CI50 inhibition (SU-DHL-10-epst): S (S=0.01 to <0.5) | Synergy Score growth inhibition (SU-DHL-10-epst): A3 (A3=>3) | Synergy Score inhibition (SU-DHL-10-epst): A2 (A2=1 to <3) | Synergy Score growth inhibition (RL): A1 (A1=0.0001 to <1) | Synergy Score inhibition (RL): A1 (A1=0.0001 to <1) | CI50 growth inhibition (KARPAS-422): S (S=0.01 to <0.5) | CI50 inhibition (KARPAS-422): T (T=0.5 to <0.7) | Synergy Score growth inhibition (KARPAS-422): A2 (A2=1 to <3) | Synergy Score inhibition (KARPAS-422): A2 (A2=1 to <3) | CI50 growth inhibition (WSU-NHL): S (S=0.01 to <0.5) | CI50 inhibition (WSU-NHL): S (S=0.01 to <0.5) | Synergy Score growth inhibition (WSU-NHL): A3 (A3=>3) | Synergy Score inhibition (WSU-NHL): A3 (A3=>3) | CI50 growth inhibition (KARPAS-299): S (S=0.01 to <0.5) | Synergy Score growth inhibition (KARPAS-299): A2 (A2=1 to <3) | Synergy Score inhibition (KARPAS-299): A1 (A1=0.0001 to <1) | CI50 growth inhibition (GRANTA-519): S (S=0.01 to <0.5) | Synergy Score growth inhibition (GRANTA-519): A3 (A3=>3) | Synergy Score inhibition (GRANTA-519): A2 (A2=1 to <3) | CI50 growth inhibition (Jeko-1): U (U=0.7 to <1) | Synergy Score growth inhibition (Jeko-1): A1 (A1=0.0001 to <1) | Synergy Score inhibition (Jeko-1): A1 (A1=0.0001 to <1) | CI50 growth inhibition (Mino): S (S=0.01 to <0.5) | CI50 inhibition (Mino): S (S=0.01 to <0.5) | Synergy Score growth inhibition (Mino): A3 (A3=>3) | Synergy Score inhibition (Mino): A3 (A3=>3) | CI50 growth inhibition (NCI-H929): S (S=0.01 to <0.5) | CI50 inhibition (NCI-H929): U (U=0.7 to <1) | Synergy Score growth inhibition (NCI-H929): A3 (A3=>3) | Synergy Score inhibition (NCI-H929): A2 (A2=1 to <3) | CI50 growth inhibition [1]: U (U=0.7 to <1) | CI50 inhibition (OMP-2): W (W=≥1) | Synergy Score growth inhibition (OMP-2): A3 (A3=>3) | Synergy Score inhibition (OMP-2): A2 (A2=1 to <3) | CI50 growth inhibition (RPMI-8226): U (U=0.7 to <1) | Synergy Score growth inhibition (RPMI-8226): A2 (A2=1 to <3) | Synergy Score inhibition (RPMI-8226): A2 (A2=1 to <3)
